Consider one compound from patent US10092574B2, “Inhibitors of polynucleotide repeat-associated RNA foci and uses thereof” (VALORISATION-RECHERCHE, LIMITED PARTNERSHIP, priority 2013, dated 2018).

The test has as its system TNNT2 exon 5. The experiment in a line: RT-PCR alternative splicing assay, TNNT2 exon 5. In kind it is cell-based, human. Conditions: DM1 myoblasts, 20 μM, 7 days; from 90% (FIG. 8C). How it is done: Human myoblasts were obtained from the Myosix institute associated with the Association Frangaise contre les Myopathies (AFM). Five primary myoblast lines were obtained as controls, and one line from a DM1 patient with a 3.8 Kb CTG triplet amplification corresponding to approximately 1250 CTG repeats. The human myoblasts are cultivated in HAM-F10 media (SIGMA N6635) with 15% FBS, 1% chick embryo extract, and 390 ng/ml of dexamethasone. One day before adding compounds, 2×10^5 cells were plated in 100 mm plates (for CUGBP1 western blot or RT-PCR alternative splicing assay) or 2×10^4 cells/well are seeded in 12-well plates containing 12 mm round glass coverslips (for FISH to detect RNA foci). […]
For Western blots, CUGBP1 was detected with the 3B1-3D11 monoclonal antibody (mAb) (SIGMA C5112) and GAPDH was detected with the 6C5 mAb (Millipore MAB374). The enhanced chemiluminescence signal (ECL) was acquired and quantified with the ChemiDoc™ MP imaging system (Bio-Rad). […] The alternative splicing of the hnRNPA2/B1 transcript was detected with the primers 5′-[…]-3′ (SEQ ID NO:7) and 5′-[…]-3′ (SEQ ID NO:8). PCR was performed with Taq using standard conditions but the number of amplification cycles was optimized to be in the quantitative range for each gene. […]

In the case of `CCCN(CCC)S(=O)(=O)c1ccc(NS(=O)(=O)Cc2ccccc2)cc1` [Compound 15], the “inclusion of foetal TNNT2 exon 5, of total transcripts” value was 76%.
